Measured values from EP4800018A1, “PAN-KRAS INHIBITOR AND USE THEREOF IN MEDICINES” (Betta Pharmaceuticals Co., Ltd., priority 2023, dated 2025).
pIC50: −log10 of the molar value.

Tests used:
[1] = PK Study of Compounds in Rats; type: in vivo, Male SD rats; settings: mean; for AUC(0-t): read-out: AUC0-t; for Cmax: read-out: C0/Cmax
Method: (§1) The test compound was mixed with the vehicle (10% DMSO/5% Solutol/85% physiological saline), vortexed and sonicated to prepare a clear 0.5 mg/mL intravenous injection solution. The test compound was mixed with the vehicle (20% PEG400/10% Solutol/70% pH 4.5 acetate buffer), vortexed and sonicated to prepare a clear 1 mg/mL oral solution. Male SD rats aged 6 to 7 weeks were selected and administered the test compound via intravenous (IV) and oral (PO) routes, respectively. Whole blood samples were collected at 5 min, 15 min, 30 min, 1 h, 2 h, 4 h, 7 h, and 24 h for the intravenous route, and at 15 min, 30 min, 1 h, 2 h, 4 h, 7 h, and 24 h for the oral route. Drug concentrations were analyzed by LC-MS/MS method, and pharmacokinetic parameters were calculated using Phoenix WinNonlin software (Pharsight, USA).

[2] = PK Study of Compounds in Mice; type: in vivo, Female ICR mice; settings: mean; for Cmax: read-out: C0/Cmax
Method: as §1, with “0.2” for “0.5”, “Female ICR mice” for “Male SD rats”

[3] = biological target: T1, KRAS G12D-cRAF (Homo sapiens, UniProt P01116, G12D); assay: Cellular KRAS G12D-cRAF Binding Inhibition Assay (NanoBRET, AD293 stable cells); type: cell-based; settings: 3 h incubation, read-out: NanoBRET KRAS G12D
T1 construct: expressed in transfected cells
T1 sequence (P01116 1-188 isoform P01116-2 G12D): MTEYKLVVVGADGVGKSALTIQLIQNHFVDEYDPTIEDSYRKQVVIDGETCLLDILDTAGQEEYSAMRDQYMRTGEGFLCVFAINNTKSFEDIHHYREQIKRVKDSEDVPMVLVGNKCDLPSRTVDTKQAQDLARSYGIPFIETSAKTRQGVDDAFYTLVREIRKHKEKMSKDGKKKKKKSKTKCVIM
Method in brief: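 AD293 cells stably expressing KRAS G12D-NanoLuc and cRAF RBD-HaloTag were seeded at 1×10^4 cells/well with NanoBRET 618 ligand overnight. BRET signal was converted to % inhibition of binding relative to max and blank wells, and IC50 came from curve fitting.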

[4] = biological target: T2, KRAS G12V-cRAF (Homo sapiens, UniProt P01116, G12V); assay: Cellular KRAS G12V-cRAF Binding Inhibition Assay (NanoBRET, AD293 stable cells); type: cell-based; settings: 3 h incubation, read-out: NanoBRET KRAS G12V
T2 construct: expressed in transfected cells
T2 sequence (P01116 1-188 isoform P01116-2 G12V): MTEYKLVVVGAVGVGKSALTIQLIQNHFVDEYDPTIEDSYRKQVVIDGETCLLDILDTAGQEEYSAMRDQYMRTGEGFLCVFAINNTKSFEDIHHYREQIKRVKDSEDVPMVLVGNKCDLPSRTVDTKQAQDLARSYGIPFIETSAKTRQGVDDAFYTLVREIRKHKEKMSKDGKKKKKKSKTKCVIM
Method in brief: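 Live AD293 stable cells, NanoLuc donor with HaloTag NanoBRET 618 ligand acceptor added overnight. Inhibition percent from luminescence relative to max signal and medium blank; IC50 from curve fitting.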

[5] = PK Study of Compounds in Dogs; type: in vivo, Beagle dogs; settings: mean; for Cmax: read-out: C0/Cmax
Method: The test compound was mixed with the vehicle (10% DMSO/5% Solutol/85% physiological saline), vortexed and sonicated to prepare a clear 1 mg/mL intravenous injection solution. The test compound was mixed with the vehicle (10% DMSO + 5% HS15 + 85% 10 mM aqueous citric acid solution), vortexed and sonicated to prepare a clear 0.6 mg/mL oral solution. Beagle dogs (two males, one female) were selected and administered the test compound via intravenous (IV) and oral (PO) routes, respectively. Whole blood samples were collected at 0 min, 5 min, 15 min, 30 min, 1 h, 2 h, 4 h, 6 h, 8 h, 12 h, 24 h, 48 h, and 72 h for the intravenous route, and at 0 min, 15 min, 30 min, 1 h, 2 h, 4 h, 6 h, 8 h, 12 h, 24 h, 48 h, and 72 h for the oral route. Drug concentrations were analyzed by LC-MS/MS method, and pharmacokinetic parameters were calculated using Phoenix WinNonlin software (Pharsight, USA).

[6] = PO 10 mg/kg vs IV 1 mg/kg (n=3)
[7] = male, SD, rat, whole blood, IV 1 mg/kg (n=3)
[8] = male, SD, rat, whole blood, PO 10 mg/kg (n=3)
[9] = female, ICR, mouse, whole blood, IV 1 mg/kg (n=3)
[10] = female, ICR, mouse, whole blood, PO 10 mg/kg (n=3)
[11] = both sexes, beagle, dog, whole blood, IV 1 mg/kg (n=3)
[12] = both sexes, beagle, dog, whole blood, PO 3 mg/kg (n=3)

In the case of `CC1OCCCn2c(c3c4cc(ccc42)-c2csc(n2)CC(NC(=O)C2C(C)C2C)C(=O)N2NC(C(=O)OCC(C)(C)C3)C3CC2C3)-c2cc(N3CCN(C)CC3)cnc21` [Example 186, (1r,2R,3S)-2,3-dimethyl-N-((1^5S,6^4S,4S,Z)-1^5,10,10-trimethyl-1^2-(4-methylpiperazin-1-yl)-5,7-dioxo-1^8,1^9-dihydro-1^5H,1^7H-8-oxa-6^2,6^3-diaza-1(13,15)-pyrido[3',2':7,8][1,5]oxazonino[5,6-a]indola-2(4,2)-thiazola-6(2,4)-bicyclo[3.1.1]heptanacycloundecaphane-4-yl)cyclopropane-1-carbox amide], the F [1, 6] was 19.5, the clearance [1, 7] was 1.93 mL/min/kg and the half-life [1, 7] was 8.4 h. The AUC(0-t) [1, 7] was 7510 ng·h/mL, the Cmax [1, 7] was 4250 ng/mL and the Vd ([1]; male, SD, rat, whole blood, IV 1 mg/kg (n=3), read-out: Vss) was 1.2 L/kg. For the same compound, the AUC(0-t) [1, 8] was 14600 ng·h/mL, the Cmax [1, 8] was 1370 ng/mL and the Tmax ([1]; male, SD, rat, whole blood, PO 10 mg/kg (n=3), read-out: Tmax) was 4 h. It also gave an F [2, 6] of 31.1, an AUC(0-t) [2, 9] of 3260 ng·h/mL and a clearance [2, 9] of 4.45 mL/min/kg. It also gave a half-life [2, 9] of 9.31 h, a Cmax [2, 9] of 571 ng/mL and a Vd ([2]; female, ICR, mouse, whole blood, IV 1 mg/kg (n=3), read-out: Vss) of 3.09 L/kg. The AUC(0-t) [2, 10] was 10100 ng·h/mL, the Tmax [2, 10] was 4 h and the Cmax [2, 10] was 679 ng/mL. The pIC50 [3] was 9.10, the pIC50 [4] was 8.27 and the F ([5]; PO 3 mg/kg vs IV 1 mg/kg (n=3)) was 41.2. It also gave an AUC(0-t) [5, 11] of 16600 ng·h/mL, a clearance [5, 11] of 0.659 mL/min/kg and a half-life [5, 11] of 34.8 h. The Cmax [5, 11] was 2020 ng/mL, the Vd ([5]; both sexes, beagle, dog, whole blood, IV 1 mg/kg (n=3), read-out: Vss) was 2.62 L/kg and the AUC(0-t) [5, 12] was 20500 ng·h/mL. For the same compound, the Tmax [5, 12] was 1.17 h and the Cmax [5, 12] was 608 ng/mL.
